Data reported in patent US11065201B2, “Gel formulations for local drug release” (TECHNICAL UNIVERSITY OF DENMARK, priority 2014, dated 2021).
Each block holds one compound with its values, some of them ahead of it.

Key:
[1] = Gel formation after injection of sugar ester formulations into PBS buffer; type: physicochemical; details: for injection into PBS and gel-formation: formulated with 35% and 20% propylene carbonate, respectively
Description: The gel-forming properties of the synthesized esters containing only small percentages of organic solvents and/or triglycerides were inspected in the following experiments
˜210 mg of the following sugar ester formulations: α,β Lactose octaacetate: α,β Lactose octaisobutyrate 5:1, α,β Lactose octaacetate: α,β Lactose octaisobutyrate 2:1, α,β Lactose octaacetate: α,β Lactose octaisobutyrate 1:1, α,β Lactose octaacetate: α,β Lactose octapropionate 1:1, α,β Lactose octaacetate: α,β Lactose octapropionate 1:5, α,β Lactose octaacetate: α,β Lactose octapropionate 1:3, α,β Lactose octapropionate: α,β Lactose octaisobutyrate 1:1, α,β Lactose octaacetate: α,β Lactose octaisobutyrate 1:5, α,β Lactose octapropionate, α,β Lactose octaisobutyrate: α,β Lactose octaacetate 0.5:0.5:5, α,β Lactose octaisobutyrate: α,β Lactose octaacetate 3:1, Trehalose octaacetate:Trehalose octapropionate 1:1, Trehalose octapropionate, Trehalose octaisobutyrate, Raffinose undecaacetate:Raffinose undecapropionate 1:1, Raffinose undecaisobutyrate, β-maltose octaisobutyrate and α,β-D-glucosamine pentapropionate were mixed with 20 wt % EtOH by heating to ˜37° C., vortexing and ultrasonication. ˜50-80 uL of the resulting formulations were then injected into 2 mL of PBS buffer using 25 G needles.
˜210 mg of the following sugar ester formulations: α,β Lactose octaacetate, α,β lactose octapropionate, α,β Lactose octaacetate: α,β lactose octapropionate 1:1, α,β lactose octaisobutyrate, α,β maltose octapropionate, β maltose octapropionate, α-D-glucosamine pentapropionate, α, β-D-glucosamine pentapropionate, β maltose octapropionate: α-D-glucosamine pentapropionate 1:1 and α-D-glucosamine pentaisobutyrate were mixed with 20 wt % NMP or DMSO by heating to ˜37° C., vortexing and ultrasonication. ˜50-60 uL of the resulting formulations were injected into PBS. With maltose octapropionate, glucosamine pentapropionate and lactose octaacetate alternative wt % of solvents were also tried (i.e. 25-40 wt % of the before mentioned solvents). […] In case of α,β-maltose propionate and α,β-D-glucosamine pentapropionate, injection into PBS and gel-formation are also successful when formulated with 35% and 20% propylene carbonate, respectively (examples shown in FIG. 1). Pure α-D-Glucosamine esters and hydrophilic maltose ester analogues have a tendency to form hard amorphous solids with some crystallinity after injection into PBS—so although ˜20 wt % solvent is possible to inject with difficulty, gels of this type containing ˜25-35 wt % solvent are easier to handle.
˜210 mg of α,β Lactose octaacetate: α,β Lactose octapropionate 1:1 or α,β Lactose octaisobutyrate were mixed with 2, 5 or 10 wt % glycerol trioctanoate, 5% DMSO and EtOH was added to give 20 wt % solvent in total for all formulations. In case of lactose octaisobutyrate, formulations containing 15 wt % glycerol trioctanoate and 5% DMSO, 30 wt % glycerol trioctanoate and 5% NMP/DMSO or 40 wt % glycerol trioctanoate alone were also made. The solutions were mixed by heating to ˜37° C., vortexing and ultrasonication. ˜40-60 uL of the resulting formulations were injected into PBS.

[2] = system: FaDu Head and Neck xenografts; assay: Diffusion of Hoechst evaluated by fluorescent imaging of tumor cryo-sections; type: in vivo, NMRI nude mice
Description: Formulations of lactose isobutyrate:X-SAIB (contrast agent): EtOH and DMSO with composition of 1)75:5:15:5, 2) 77, 5:5:12, 5:5 and 2) 80:5:10:5 were prepared along with formulations of lactose acetate:propionate(1:1):X-SAIB(contrast agent): EtOH and DMSO in 75:5:15:5 ratio. All of the gel formulations were prepared with ˜0.7‰ of Hoechst 33342, as model of a DNA binding drug. 25-30 uL of each gel was injected into FaDu Head and Neck xenografts grown on the flank of NMRI nude mice (groups of 4-8 mice were injected with each formulation). Release and gel-stability was monitored for a maximum of 5-6 days. 2-3 mice were sacrificed at predetermined times (day 1, middle of the experimental period and at the end of the experimental period). The tumors were excised and snap-frozen with liquid N2 to preserve the tumor tissue for histological examination. Stability of the radiopaque gel-depots was evaluated by micro-CT imaging (see FIG. 18). Only the lactose isobutyrate gel was subjected to X-rays, to evaluate the effect of radiation on gel-stability. […] Diffusion of Hoechst was evaluated by fluorescent imaging of the tumor cryo-sections (see FIG. 19).

[3] = cited from earlier work
[4] = 20 wt % EtOH, ~50-80 uL injected into 2 mL PBS buffer, 25 G needles
[5] = 20 wt % NMP or DMSO (25-40 wt % also tried for some), ~50-60 uL injected into PBS

- gel formation upon injection [1, 4]: formed gels upon injection
Compound: Trehalose Octaisobutyrate

Compound: CCOc1ccc(-c2nc3ccc(-c4nc5ccc(N6CCN(C)CC6)cc5[nH]4)cc3[nH]2)cc1 [Hoechst 33342]
- release of Hoechst into the tumors ([2]; from gel depots, ~0.7‰ Hoechst 33342, tumor cryo-sections): confirmed release of Hoechst into the tumors
- distribution of the fluorophore in the tumor ([2]; over a period of 6 days): distribution of the fluorophore across most of the tumor area

Compound: O=C1OC2(c3ccc(O)cc3Oc3cc(O)ccc32)c2ccccc21 [fluorescein free acid]
- Log P [3]: ~1.8

Compound: CC(C)C(=O)NC1[C@@H](OC(=O)C(C)C)OC(COC(=O)C(C)C)[C@@H](OC(=O)C(C)C)[C@@H]1OC(=O)C(C)C (stereo partly drawn) [α-D-glucosamine pentaisobutyrate, α-D Glucosamine Pentaisobutyrate]
- gel formation upon injection [1, 5]: formation of an amorphous solid (gel) was seen

Compound: CCC(=O)OC[C@H]1O[C@@H](O[C@H]2[C@H](OC(=O)CC)[C@@H](OC(=O)CC)C(OC(=O)CC)O[C@@H]2COC(=O)CC)[C@H](OC(=O)CC)[C@@H](OC(=O)CC)[C@H]1OC(=O)CC (stereo partly drawn) [α,β lactose octapropionate, α,β-Lactose Octapropionate]
- gel formation upon injection [1, 5]: formation of an amorphous solid (gel) was seen

- gel formation upon injection [1, 4]: formed gels upon injection
Compound: CCC(=O)OCC1O[C@@H](O[C@H]2OC(COC(=O)CC)[C@@H](OC(=O)CC)[C@H](OC(=O)CC)C2OC(=O)CC)C(OC(=O)CC)C(OC(=O)CC)[C@H]1OC(=O)CC (stereo partly drawn) [Trehalose octapropionate, Trehalose Octapropionate]

Compound: NNC(=O)c1ccncc1 [isoniazide]
- Log P [3]: ~−0.8

Compound: CCC(=O)OCC1O[C@H](O[C@@H]2C(COC(=O)CC)O[C@@H](OC(=O)CC)C(OC(=O)CC)[C@H]2OC(=O)CC)C(OC(=O)CC)[C@@H](OC(=O)CC)[C@@H]1OC(=O)CC (stereo partly drawn) [β maltose octapropionate, β-Maltose Octapropionate]
- gel formation upon injection [1, 5]: formation of an amorphous solid (gel) was seen

Compound: Nc1n[n+]([O-])c2ccccc2[n+]1[O-] [tirapazamine]
- Log P [3]: ~−0.06

- gel formation upon injection [1, 4]: formed gels upon injection
- injection into PBS and gel-formation [1]: successful
Compound: CCC(=O)NC1C(OC(=O)CC)OC(COC(=O)CC)[C@@H](OC(=O)CC)[C@@H]1OC(=O)CC (stereo partly drawn) [α,β-D-glucosamine pentapropionate, α,β-D Glucosamine Pentapropionate]
- gel formation upon injection [1, 5]: formation of an amorphous solid (gel) was seen

Compound: CC(=O)OC[C@H]1O[C@@H](O[C@H]2[C@H](OC(C)=O)[C@@H](OC(C)=O)C(OC(C)=O)O[C@@H]2COC(C)=O)[C@H](OC(C)=O)[C@@H](OC(C)=O)[C@H]1OC(C)=O (stereo partly drawn) [α,β Lactose octaacetate, α,β-Lactose Octaacetate]
- injectability ([1]; 20 wt % DMSO or 20 wt % propylene carbonate): this occurs with difficulty due to high viscosity
- gel formation upon injection [1, 5]: formation of an amorphous solid (gel) was seen

- gel formation upon injection [1, 4]: formed gels upon injection
Compound: CC(C)C(=O)OCC1O[C@H](OCC2O[C@@H](O[C@]3(COC(=O)C(C)C)O[C@H](COC(=O)C(C)C)[C@@H](OC(=O)C(C)C)[C@H]3OC(=O)C(C)C)C(OC(=O)C(C)C)[C@@H](OC(=O)C(C)C)[C@@H]2OC(=O)C(C)C)C(OC(=O)C(C)C)[C@@H](OC(=O)C(C)C)[C@H]1OC(=O)C(C)C (stereo partly drawn) [Raffinose undecaisobutyrate, Raffinose Undecaisobutyrate]

Compound: CC(C)C(=O)OC[C@H]1O[C@@H](O[C@H]2[C@H](OC(=O)C(C)C)[C@@H](OC(=O)C(C)C)C(OC(=O)C(C)C)O[C@@H]2COC(=O)C(C)C)[C@H](OC(=O)C(C)C)[C@@H](OC(=O)C(C)C)[C@H]1OC(=O)C(C)C (stereo partly drawn) [α,β lactose octaisobutyrate, α,β-Lactose Octaisobutyrate]
- gel formation upon injection ([1]; 2-40 wt % glycerol trioctanoate, with DMSO/NMP/EtOH, ~40-60 uL injected into PBS): formation of an amorphous solid (gel) was seen
- gel formation upon injection [1, 5]: formation of an amorphous solid (gel) was seen
- appearance of the injected solid ([1]; pure triglyceride used as solvent (40 wt % glycerol trioctanoate alone), up to 24 h after injection): very soft, transparant and could easily be manipulated in shape

- gel formation upon injection [1, 4]: formed gels upon injection
Compound: CC(C)C(=O)OCC1O[C@H](O[C@@H]2C(COC(=O)C(C)C)O[C@@H](OC(=O)C(C)C)C(OC(=O)C(C)C)[C@H]2OC(=O)C(C)C)C(OC(=O)C(C)C)[C@@H](OC(=O)C(C)C)[C@@H]1OC(=O)C(C)C (stereo partly drawn) [β-maltose octaisobutyrate, β-Maltose Octaisobutyrate]

- injection into PBS and gel-formation [1]: successful
Compound: CCC(=O)OCC1OC(OC(=O)CC)C(OC(=O)CC)[C@@H](OC(=O)CC)[C@@H]1O[C@H]1OC(COC(=O)CC)[C@@H](OC(=O)CC)[C@H](OC(=O)CC)C1OC(=O)CC (stereo partly drawn) [α,β maltose octapropionate, α,β-Maltose Octapropionate]
- gel formation upon injection [1, 5]: formation of an amorphous solid (gel) was seen

Compound: CCC(=O)NC1[C@@H](OC(=O)CC)OC(COC(=O)CC)[C@@H](OC(=O)CC)[C@@H]1OC(=O)CC (stereo partly drawn) [α-D-glucosamine pentapropionate, α-D Glucosamine Pentapropionate]
- gel formation upon injection [1, 5]: formation of an amorphous solid (gel) was seen

Compound: O=C([O-])c1ccccc1-c1c2cc(Br)c(=O)c(Br)c-2oc2c(Br)c([O-])c(Br)cc12.[Na+].[Na+] [Eosin Y]
- Log P [3]: ~6.4
